Experimental data: patent US10273248B2, “Glucose uptake inhibitors” (Kadmon Corporation LLC, priority 2015, dated 2019)
Where a name gives a salt, the structure may show the parent alone.

tested on: glycolysis in HT1080 cells; assay: Glycolysis assay: oligomycin plus compound, cellular ATP by Cell Titer Glo; assay type: cell-based; details: Homo sapiens, HT-1080, 1 h, 10 μM oligomycin, one hour, class symbols
Outline: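 Confluent HT1080 cells treated 1 h with compound plus 10 μM oligomycin to block mitochondrial ATP, so remaining ATP reflects glycolysis. Cellular ATP read by Cell Titer-Glo luminescence; IC50 derived from dose-response curves.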

Structure (SMILES) | IC50
CCC(CC)NC(=O)COc1cccc(-c2nc3c(c(Nc4ccc(-c5cn[nH]c5)cc4)n2)CN(C(C)C)CC3)c1 [Example 119, 2-(3-(4-((4-(1H-pyrazol-4-yl)phenyl)amino)-6-isopropyl-5,6,7,8-tetrahydropyrido[4,3-d]pyrimidin-2-yl)phenoxy)-N-(pentan-3-yl)acetamide] | 501 to 1000 nM
COCCOc1cccc(-c2nc3c(c(Nc4ccc(-c5cn[nH]c5)cc4)n2)COCC3)c1 [Example 127, N-(4-(1H-pyrazol-4-yl)phenyl)-2-(3-(2-methoxyethoxy)phenyl)-7,8-dihydro-5H-pyrano[4,3-d]pyrimidin-4-amine] | > 1000 nM
CCC(C)(C)NC(=O)COc1cccc(-c2nc3c(c(Nc4ccc(-c5cn[nH]c5)cc4)n2)CNCC3)c1 [Example 128, 2-(3-(4-((4-(1H-pyrazol-4-yl)phenyl)amino)-5,6,7,8-tetrahydropyrido[4,3-d]pyrimidin-2-yl)phenoxy)-N-(tert-pentyl)acetamide] | 10 to 100 nM
CCN1CCc2nc(-c3cccc(OCC(=O)NC(C)(C)CC)c3)nc(Nc3ccc(-c4cn[nH]c4)cc3)c2C1 [Example 130, 2-(3-(4-((4-(1H-pyrazol-4-yl)phenyl)amino)-6-ethyl-5,6,7,8-tetrahydropyrido[4,3-d]pyrimidin-2-yl)phenoxy)-N-(tert-pentyl)acetamide] | 10 to 100 nM
CCC(C)(C)NC(=O)COc1cccc(-c2nc3c(c(Nc4ccc(-c5cn[nH]c5)cc4)n2)CN(C(C)C)CC3)c1 [Example 131, 2-(3-(4-((4-(1H-pyrazol-4-yl)phenyl)amino)-6-isopropyl-5,6,7,8-tetrahydropyrido[4,3-d]pyrimidin-2-yl)phenoxy)-N-(tert-pentyl)acetamide] | 101 to 250 nM
CCC(=O)N1CCc2nc(-c3cccc(OCC(=O)NC(C)(C)CC)c3)nc(Nc3ccc(-c4cn[nH]c4)cc3)c2C1 [Example 132, 2-(3-(4-((4-(1H-pyrazol-4-yl)phenyl)amino)-6-propionyl-5,6,7,8-tetrahydropyrido[4,3-d]pyrimidin-2-yl)phenoxy)-N-(tert-pentyl)acetamide] | 10 to 100 nM
CC(C)NC(=O)COc1cccc(-c2nc(Nc3ccc(-c4cn[nH]c4)cc3)c3cnccc3n2)c1 [Example 134, 2-(3-(4-((4-(1H-pyrazol-4-yl)phenyl)amino)pyrido[4,3-d]pyrimidin-2-yl)phenoxy)-N-isopropylacetamide] | 10 to 100 nM
CC(C)(C)NC(=O)COc1cccc(-c2nc(Nc3ccc(-c4cn[nH]c4)cc3)c3cnccc3n2)c1 [Example 135, 2-(3-(4-((4-(1H-pyrazol-4-yl)phenyl)amino)pyrido[4,3-d]pyrimidin-2-yl)phenoxy)-N-(tert-butyl)acetamide] | 10 to 100 nM
CC(C)(C)NC(=O)COc1cccc(-c2nc(Nc3ccc(-c4cn[nH]c4)cc3)c3ccncc3n2)c1 [Example 136, 2-(3-(4-((4-(1H-pyrazol-4-yl)phenyl)amino)pyrido[3,4-d]pyrimidin-2-yl)phenoxy)-N-(tert-butyl)acetamide] | 10 to 100 nM
CCC(CC)NC(=O)COc1cccc(-c2nc(Nc3ccc(-c4cn[nH]c4)cc3)c3ccncc3n2)c1 [Example 137, 2-(3-(4-((4-(1H-pyrazol-4-yl)phenyl)amino)pyrido[3,4-d]pyrimidin-2-yl)phenoxy)-N-(pentan-3-yl)acetamide dihydrochloride] | 10 to 100 nM
O=C(COc1cccc(-c2nc(Nc3ccc(-c4cn[nH]c4)cc3)c3ccncc3n2)c1)NC1CCCCC1 [Example 138, 2-(3-(4-((4-(1H-pyrazol-4-yl)phenyl)amino)pyrido[3,4-d]pyrimidin-2-yl)phenoxy)-N-cyclohexylacetamide dihydrochloride] | 10 to 100 nM
NC(=O)COc1cccc(-c2nc(Nc3ccc(-c4cn[nH]c4)cc3)c3sccc3n2)c1 [Example 139, 2-(3-(4-((4-(1H-pyrazol-4-yl)phenyl)amino)thieno[3,2-d]pyrimidin-2-yl)phenoxy)acetamide] | > 1000 nM
CCC(CC)NC(=O)COc1cccc(-c2nc3c(c(Nc4ccc(-c5cn[nH]c5)cc4)n2)CN(C(C)=O)C3)c1 [Example 141, 2-(3-(4-((4-(1H-pyrazol-4-yl)phenyl)amino)-6-acetyl-6,7-dihydro-5H-pyrrolo[3,4-d]pyrimidin-2-yl)phenoxy)-N-(pentan-3-yl)acetamide] | 10 to 100 nM
CC(=O)N1Cc2nc(-c3cccc(OCC(=O)NC(C)(C)C)c3)nc(Nc3ccc(-c4cn[nH]c4)cc3)c2C1 [Example 142, 2-(3-(4-((4-(1H-pyrazol-4-yl)phenyl)amino)-6-acetyl-6,7-dihydro-5H-pyrrolo[3,4-d]pyrimidin-2-yl)phenoxy)-N-(tert-butyl)acetamide] | 10 to 100 nM
CC(=O)N1CCc2nc(-c3cccc(OCC(=O)NCC(C)(C)C)c3)nc(Nc3ccc(-c4cn[nH]c4)cc3)c2C1 [Example 147, 2-(3-(4-((4-(1H-pyrazol-4-yl)phenyl)amino)-6-acetyl-5,6,7,8-tetrahydropyrido[4,3-d]pyrimidin-2-yl)phenoxy)-N-neopentylacetamide] | 10 to 100 nM
CCC(C)(C)NC(=O)COc1cccc(-c2nc3c(c(Nc4ccc(-c5cn[nH]c5)cc4)n2)CN(C(C)=O)CC3)c1 [Example 148, 2-(3-(4-((4-(1H-pyrazol-4-yl)phenyl)amino)-6-acetyl-5,6,7,8-tetrahydropyrido[4,3-d]pyrimidin-2-yl)phenoxy)-N-(tert-pentyl)acetamide] | 10 to 100 nM

The remaining lines, values ahead:

IC50 | Structure (SMILES)
101 to 250 nM | CCN1CCc2nc(-c3cccc(OCC(=O)NC4CCCC4)c3)nc(Nc3ccc(-c4cn[nH]c4)cc3)c2C1 [Example 125, 2-(3-(4-((4-(1H-pyrazol-4-yl)phenyl)amino)-6-ethyl-5,6,7,8-tetrahydropyrido[4,3-d]pyrimidin-2-yl)phenoxy)-N-cyclopentylacetamide]
101 to 250 nM | CC(=O)N1Cc2nc(-c3cccc(OCC(=O)NC(C)C)c3)nc(Nc3ccc(-c4cn[nH]c4)cc3)c2C1 [Example 140, 2-(3-(4-((4-(1H-pyrazol-4-yl)phenyl)amino)-6-acetyl-6,7-dihydro-5H-pyrrolo[3,4-d]pyrimidin-2-yl)phenoxy)-N-isopropylacetamide]
10 to 100 nM | CC(=O)N1Cc2nc(-c3cccc(OCC(=O)NC4CCCC4)c3)nc(Nc3ccc(-c4cn[nH]c4)cc3)c2C1 [Example 143, 2-(3-(4-((4-(1H-pyrazol-4-yl)phenyl)amino)-6-acetyl-6,7-dihydro-5H-pyrrolo[3,4-d]pyrimidin-2-yl)phenoxy)-N-cyclopentylacetamide]
10 to 100 nM | CC(=O)N1CCc2nc(-c3cccc(OCC(=O)NC4CCCC4)c3)nc(Nc3ccc(-c4cn[nH]c4)cc3)c2C1 [Example 145, 2-(3-(4-((4-(1H-pyrazol-4-yl)phenyl)amino)-6-acetyl-5,6,7,8-tetrahydropyrido[4,3-d]pyrimidin-2-yl)phenoxy)-N-cyclopentylacetamide]
10 to 100 nM | CC(=O)N1CCc2nc(-c3cccc(OCC(=O)NCC(C)C)c3)nc(Nc3ccc(-c4cn[nH]c4)cc3)c2C1 [Example 146, 2-(3-(4-((4-(1H-pyrazol-4-yl)phenyl)amino)-6-acetyl-5,6,7,8-tetrahydropyrido[4,3-d]pyrimidin-2-yl)phenoxy)-N-isobutylacetamide]
10 to 100 nM | CC(C)NC(=O)COc1cccc(-c2nc3c(c(Nc4ccc(-c5cn[nH]c5)cc4)n2)CN(C(=O)C(C)C)CC3)c1 [Example 149, 2-(3-(4-((4-(1H-pyrazol-4-yl)phenyl)amino)-6-isobutyryl-5,6,7,8-tetrahydropyrido[4,3-d]pyrimidin-2-yl)phenoxy)-N-isopropylacetamide]
10 to 100 nM | CC(C)C(=O)N1CCc2nc(-c3cccc(OCC(=O)NC(C)(C)C)c3)nc(Nc3ccc(-c4cn[nH]c4)cc3)c2C1 [Example 151, 2-(3-(4-((4-(1H-pyrazol-4-yl)phenyl)amino)-6-isobutyryl-5,6,7,8-tetrahydropyrido[4,3-d]pyrimidin-2-yl)phenoxy)-N-(tert-butyl)acetamide]
10 to 100 nM | CC(C)C(=O)N1CCc2nc(-c3cccc(OCC(=O)NC4CCC4)c3)nc(Nc3ccc(-c4cn[nH]c4)cc3)c2C1 [Example 152, 2-(3-(4-((4-(1H-pyrazol-4-yl)phenyl)amino)-6-isobutyryl-5,6,7,8-tetrahydropyrido[4,3-d]pyrimidin-2-yl)phenoxy)-N-cyclobutylacetamide]
10 to 100 nM | CCC(CC)NC(=O)COc1cccc(-c2nc3c(c(Nc4ccc(-c5cn[nH]c5)cc4)n2)CN(C(=O)C(C)C)CC3)c1 [Example 153, 2-(3-(4-((4-(1H-pyrazol-4-yl)phenyl)amino)-6-isobutyryl-5,6,7,8-tetrahydropyrido[4,3-d]pyrimidin-2-yl)phenoxy)-N-(pentan-3-yl)acetamide]
10 to 100 nM | CC(C)CNC(=O)COc1cccc(-c2nc3c(c(Nc4ccc(-c5cn[nH]c5)cc4)n2)CN(C(=O)C(C)C)CC3)c1 [Example 154, 2-(3-(4-((4-(1H-pyrazol-4-yl)phenyl)amino)-6-isobutyryl-5,6,7,8-tetrahydropyrido[4,3-d]pyrimidin-2-yl)phenoxy)-N-isobutylacetamide]
10 to 100 nM | CC(C)C(=O)N1CCc2nc(-c3cccc(OCC(=O)NCC(C)(C)C)c3)nc(Nc3ccc(-c4cn[nH]c4)cc3)c2C1 [Example 155, 2-(3-(4-((4-(1H-pyrazol-4-yl)phenyl)amino)-6-isobutyryl-5,6,7,8-tetrahydropyrido[4,3-d]pyrimidin-2-yl)phenoxy)-N-neopentylacetamide]
10 to 100 nM | CCC(C)(C)NC(=O)COc1cccc(-c2nc3c(c(Nc4ccc(-c5cn[nH]c5)cc4)n2)CN(C(=O)C(C)C)CC3)c1 [Example 156, 2-(3-(4-((4-(1H-pyrazol-4-yl)phenyl)amino)-6-isobutyryl-5,6,7,8-tetrahydropyrido[4,3-d]pyrimidin-2-yl)phenoxy)-N-(tert-pentyl)acetamide]

same assay, conditions: Homo sapiens, HT-1080, 1 h, 10 μM oligomycin, one hour, number printed instead of class

Structure (SMILES) | IC50
CC(C)C(=O)N1CCc2nc(-c3cccc(OCC(=O)NC4CCCC4)c3)nc(Nc3ccc(-c4cn[nH]c4)cc3)c2C1 [Example 150, 2-(3-(4-((4-(1H-pyrazol-4-yl)phenyl)amino)-6-isobutyryl-5,6,7,8-tetrahydropyrido[4,3-d]pyrimidin-2-yl)phenoxy)-N-cyclopentylacetamide] | 28 nM
